Entries after “also recorded” stand apart in the source; their conditions may differ.
Key:
[1] = test system: retinal endothelial cells (REC); assay: REC attachment assay; assay type: cell-based, human; conditions: increasing concentrations (100 nM to 1 μM), six hours
Description: Adhesive interactions with extracellular matrix proteins rely on focal adhesion proteins engaging with integrins to strengthen and maintain cell contacts. In the transwell migration assay system, initial cell-attachment to the porous membrane was relied upon in order to obtain a measure of cells that have migrated through to the underside of the well. Since compound (II-4) was in direct contact with cells prior to being seeded onto the transwell membranes, the potential of compound (II-4) to impede the attachment of RECs to the membranes was investigated. […] However, investigation of integrin-mediated signaling may be of interest to further evaluate and characterize compound (II-4)'s potential role in disrupting cross-talk between growth-factor and integrin-mediated signaling during pathological retinal angiogenesis.
FIG. 19: REC attachment assay. Increasing concentrations of compound (II-4) with suspended RECs were seeded to 96-wells to investigate inhibition of REC-adherence to attachment-factor surfaces. […] (P>0.05; n=8).

[2] = test system: AKT (Ser473); assay: Western blot of VEGF-induced AKT phosphorylation in REC; assay type: cell-based, human; conditions: REC under VEGF; compound (II-4) 500 nM, SU6656 1 μM
Experimental: REC, Mel 270, OMM 2.5 under Hepatocyte Growth Factor (HGF) or Vascular Endothelial Growth Factor (VEGF) stimulation conditions: Cell lysates were collected in RIPA lysis buffer (50 mM Tris-HCl, pH 7.4, 150 mM NaCl, 2 mM EDTA, 1% Nonidet P-40, 0.1% SDS) with protease 1× inhibitor cocktail (Roche; Indianapolis, Ind.). Lysates were kept on ice and centrifuged at 10,000×g×10 minutes and total protein was measured using the BCA assay (Pierce, Rockford, Ill.). Protein samples were mixed with 4×LDS loading buffer with 2.5% 2-mercaptoethanol (Sigma-Aldrich), heated to 70° C. for 10 minutes, and loaded on NuPAGE 4-12% Bis-Tris gel (Invitrogen, Carlsbad, Calif.). Immunoblotting was performed with nitrocellulose membranes (Bio-Rad, Hercules, Calif.) at 170-mA start and 110-mA end at 25 V for two hours in NuPAGE transfer buffer (Invitrogen) containing 20% methanol. Membranes were blocked using Odyssey blocking buffer (LI-COR; Lincoln, Nebr.) for one hour at room temperature with gentle shaking Membranes were then incubated at 4° C. with specific primary antibodies (1:1000) overnight. Cellular protein was normalized using rabbit-GAPDH or mouse-α-Tubulin [1:20,000] (Cell Signaling, Danvers, Mass.; LI-COR, respectively). […] Dual-channel infrared scan and quantitation of immunoblots were conducted using the ODYSSEY Sa infrared imaging system with Image Studio (Ver. 3.1.4) (LI-COR). […]

[3] = biological target: T1, CYP3A4 (Homo sapiens, UniProt P08684); assay: CYP-450 interaction study in pooled human liver microsomes, CYP3A4; assay type: in vitro ADME; conditions: 1 μM
T1 construct: from tissue; host or cells: pooled human liver microsomes
T1 sequence (P08684 whole entry): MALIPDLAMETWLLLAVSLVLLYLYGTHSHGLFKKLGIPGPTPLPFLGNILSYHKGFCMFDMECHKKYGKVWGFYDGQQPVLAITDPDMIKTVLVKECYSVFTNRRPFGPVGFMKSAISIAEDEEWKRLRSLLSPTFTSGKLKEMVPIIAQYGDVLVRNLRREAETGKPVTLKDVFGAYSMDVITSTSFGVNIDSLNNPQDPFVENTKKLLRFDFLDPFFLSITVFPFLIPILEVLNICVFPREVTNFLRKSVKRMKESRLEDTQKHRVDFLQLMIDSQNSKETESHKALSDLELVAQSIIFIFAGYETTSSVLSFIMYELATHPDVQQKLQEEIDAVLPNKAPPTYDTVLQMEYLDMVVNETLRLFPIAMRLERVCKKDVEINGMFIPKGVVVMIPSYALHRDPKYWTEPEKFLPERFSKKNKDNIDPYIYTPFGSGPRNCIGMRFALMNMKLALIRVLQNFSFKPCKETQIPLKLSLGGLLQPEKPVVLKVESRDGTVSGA
Experimental: CYP-450 interaction studies were conducted in pooled human liver microsomes (FIG. 8). CYP-450 inhibition (%) by compound (II-4) (1 μM) was compared to control inhibitors (1 μM) for the most common CYP-450 isoforms, CYP3A4, CYP2C9, CYP2D6, CYP2C19, and CYP1A2.
CYP-450 interaction studies were conducted in pooled human liver microsomes (FIG. 24). CYP-450 inhibition (%) by compound (II-4) (1 μM) was compared to control inhibitors (1 μM) for the most common CYP-450 isoforms, 3A4, 2C9, 2D6, 2C19, and 1A2.

[4] = test system: paxillin; assay: Murine OIR model, Western blot of retinal homogenates; assay type: in vivo, mouse; conditions: daily ocular administration 0.5 mg/kg or 5 mg/kg, P17
Description: Topical delivery of compound (II-4) using an ocular ME was chosen for several reasons. First, intravitreal injection is technically challenging and, unlike intraocular delivery of proteins, is unnecessary for delivery of small molecules. […] The murine OIR model was used to examine the effect of compound (II-4) on the natural history of VEGF-induced proliferative retinopathy. Briefly, pups were exposed to 75% oxygen at post-natal day 7 (P7) for 5 days and then returned to normal oxygen at P12. Mice received daily ocular administration of either compound (II-4) (0.5 mg/kg or 5 mg/kg) or vehicle (ME) from P12 to P17. Eyes were enucleated at P17 and retinal whole-mounts stained for endothelial cells followed by quantification of avascular area and vascular tuft formation.
FIG. 22: Oxygen-Induced Retinopathy (OIR). (A:) P17 retinal whole-mounts were stained for endothelial cells. […] Data represent mean (±SD). N=8-14/group. […] (C): Quantitation of panel A neovascular area. (D): Quantitation of panel A avascular area. (E): Quantitation of panel B total paxillin.

COc1cc(C2OC(=O)Nc3c2ccc2ccccc32)cc(OC)c1OC (stereo not shown) [compound II-4]
attachment of RECs to attachment-factor coated wells [1]: did not impede the attachment | VEGF-induced activation of AKT (P-AKT Ser473) [2]: able to prevent; also recorded: reduced | CYP-450 inhibition, CYP3A4 [3]: lack of significant inhibition; also recorded: lacks significant inhibition | total paxillin in retinal homogenates [4]: dose-dependent reduction; also recorded: reduced total paxillin protein
